Source: patent US20230416205A1, “COMPOUNDS, COMPOSITIONS, AND METHODS” (Denali Therapeutics Inc, priority 2020, published 2023)
Read-outs that look alike come from different tables or passages of the source.

System: NLRP3
Test: IL-1β secretion assay in PMA-differentiated, LPS/nigericin-stimulated THP-1 cells (384-well, ELISA read-out)
Format: cell-based, human
Procedure, shortened: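 THP-1 cells differentiated with PMA (5 ng/mL, 40 h), primed in serum-free medium with 25 ng/mL LPS for 2 h, treated with compounds 1 h (0.5% DMSO), then stimulated with nigericin for 2 h at 37 °C. Supernatant IL-1β measured by ELISA; responses normalized to LPS+5 μM nigericin and LPS-only controls.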

[1] = Homo sapiens, THP-1, Table 4, IL-1β secretion, LPS/nigericin-stimulated THP-1 cells, read-out: IC50
[2] = Homo sapiens, THP-1, IL-1β secretion, PMA-differentiated THP-1 cells, LPS then nigericin stimulation, ELISA read at 450 nm, read-out: Activity
[3] = Table 4, IL-1β secretion, LPS/nigericin-stimulated THP-1 cells, read-out: IC50

Compound	IC50 [1] [µM]	IC50 [2] [µM]	IC50 (IL-1β secretion, PMA-differentiated THP-1 cells, LPS then nigericin stimulation, ELISA read at 450 nm, read-out: Activity) [µM]	IC50 [3] [µM]
Cn1cc(N2CCC(NC(=O)CN3CC4(CC4)c4cc(Br)ccc4C3=O)C2)cn1 (stereo not shown) [Example 416, 2-(6-bromo-1-oxospiro[3H-isoquinoline-4,1′-cyclopropane]-2-yl)-N-[1-(1-methylpyrazol-4-yl)pyrrolidin-3-yl]acetamide]	20.8	–	–	–
Cc1cc(NC(=O)CN2CC3(CC3)c3cc(Br)ccc3C2=O)n(-c2ccccc2)n1 [Example 149, 2-(6-bromo-1-oxospiro[3H-isoquinoline-4,1′-cyclopropane]-2-yl)-N-(5-methyl-2-phenylpyrazol-3-yl)acetamide]	6.58	< 10	–	–
O=C(CN1CC2(CC2)c2cc(C3COC3)ccc2C1=O)Nc1ncc(F)cn1 [Example 336, N-(5-fluoropyrimidin-2-yl)-2-[6-(oxetan-3-yl)-1-oxospiro[3H-isoquinoline-4,1′-cyclopropane]-2-yl]acetamide]	23.2	–	–	–
O=C(CN1CC2(CC2)c2cc(Br)ccc2C1=O)Nc1nc2ncccc2o1 [Example 209, 2-(6-bromo-1-oxo-spiro[3H-isoquinoline-4,1′-cyclopropane]-2-yl)-N-oxazolo[4,5-b]pyridin-2-yl-acetamide]	3.56	< 10	–	–
O=C(CN1CC2(CC2)c2cc(Br)ccc2C1=O)Nc1ncc(N2CCCC2)cn1 [Example 364, 2-(6-bromo-1-oxospiro[3H-isoquinoline-4,1′-cyclopropane]-2-yl)-N-(5-pyrrolidin-1-ylpyrimidin-2-yl)acetamide]	2.56	–	–	–
O=C(CN1C[C@@]2(C[C@@H]2F)c2cc(C(F)(F)F)ccc2C1=O)Nc1ncc(F)cn1 (single isomer, unassigned) [Example 235, 2-[(2′s,4r)-2′-fluoro-1-oxo-6-(trifluoromethyl)spiro[3H-isoquinoline-4,1′-cyclopropane]-2-yl]-N-(5-fluoropyrimidin-2-yl)acetamide]	–	–	< 10	0.85
O=C(CN1CC2(CC2)c2cc(Br)ccc2C1=O)Nc1ccncc1F [Example 11]	0.531	< 10	–	–
CC1N(CC(=O)Nc2ncccn2)C(=O)c2ccc(C(F)(F)F)cc2C12CC2 (stereo not shown) [Example 76, 2-[3-methyl-1-oxo-6-(trifluoromethyl)spiro[3H-isoquinoline-4,1′-cyclopropane]-2-yl]-N-pyrimidin-2-ylacetamide]	16.2	> 15	–	–
O=C(CN1CC2(CC2)c2cc(Br)ccc2C1=O)Nc1nc2ccnn2cc1F [Example 333, 2-(6-bromo-1-oxospiro[3H-isoquinoline-4,1′-cyclopropane]-2-yl)-N-(6-fluoropyrazolo[1,5-a]pyrimidin-5-yl)acetamide]	0.895	–	–	–
CCN1CCCC(NC(=O)CN2CC3(CC3)c3cc(Br)ccc3C2=O)C1 (stereo not shown) [Example 18, 2-(6-bromo-1-oxospiro[3H-isoquinoline-4,1′-cyclopropane]-2-yl)-N-(1-ethylpiperidin-3-yl)acetamide]	1.45	< 10	–	–
N#Cc1cnc(NC(=O)CN2C[C@@]3(C[C@@H]3F)c3c(ccc(Br)c3F)C2=O)nc1 (single isomer, unassigned) [Example 221, 2-[(2′s,4r)-6-bromo-2′,5-difluoro-1-oxospiro[3H-isoquinoline-4,1′-cyclopropane]-2-yl]-N-(5-cyanopyrimidin-2-yl)acetamide]	0.014	< 10	–	–
O=C(CN1CC2(CC2)c2c(ccc(C3C[C@H]3F)c2F)C1=O)Nc1ncc(F)cn1 (single isomer, unassigned) [Example 304, 2-[5-fluoro-6-[(1r,2r)-2-fluorocyclopropyl]-1-oxospiro[3H-isoquinoline-4-1′-cyclopropane]-2-yl]-N-(5-fluoropyrimidin-2-yl)acetamide]	–	–	–	2.56
O=C(CN1CC2(CC2)c2cc(Br)ccc2C1=O)N[C@@H]1CCN(C2COC2)C1 [Example 381, 2-(6-bromo-1-oxospiro[3H-isoquinoline-4,1′-cyclopropane]-2-yl)-N-[(3R)-1-(oxetan-3-yl)pyrrolidin-3-yl]acetamide]	12.1	–	–	–
O=C(CN1CC(CF)c2cc(Br)ccc2C1=O)Nc1ncc(F)cn1 (single isomer, unassigned) [Example 292, 2-[6-bromo-4-(fluoromethyl)-1-oxo-3,4-dihydroisoquinolin-2-yl]-N-(5-fluoropyrimidin-2-yl)acetamide]	–	< 10	–	3.94
CC(C)(O)CCNC(=O)CN1CC2(CC2)c2cc(Br)ccc2C1=O [Example 47, 2-(6-bromo-1-oxospiro[3H-isoquinoline-4,1′-cyclopropane]-2-yl)-N-(3-hydroxy-3-methylbutyl)acetamide]	4.7	< 10	–	–
O=C(CN1CC2(CC2)c2cc(Br)ccc2C1=O)NC1CC(c2ccccc2)C1 (stereo not drawn) [Example 427, 2-(6-bromo-1-oxospiro[3H-isoquinoline-4,1′-cyclopropane]-2-yl)-N-(3-trans-phenylcyclobutyl)acetamide]	6.28	–	–	–

Compound	IC50 [1] [µM]	IC50 [2] [µM]	IC50 (IL-1β secretion, PMA-differentiated THP-1 cells, LPS then nigericin stimulation, ELISA read at 450 nm, read-out: Activity) [µM]	IC50 [3] [µM]
O=C(CN1CC2(CC2)c2cc(Br)ccc2C1=O)NC1CCn2nccc2C1 (stereo not shown) [Example 20]	3.19	< 10	–	–
O=C(CN1CC2(CC2)c2cc(Br)ccc2C1=O)Nc1ncc(OC(F)F)cn1 [Example 270, 2-(6-bromo-1-oxospiro[3H-isoquinoline-4,1′-cyclopropane]-2-yl)-N-[5-(difluoromethoxy)pyrimidin-2-yl]acetamide]	0.286	< 10	–	–
O=C(CN1CC(C(F)F)c2cc(Br)ccc2C1=O)Nc1ncc(F)cn1 (stereo not shown) [Example 95, 2-[6-bromo-4-(difluoromethyl)-1-oxo-3,4-dihydroisoquinolin-2-yl]-N-(5-fluoropyrimidin-2-yl)acetamide]	0.32	< 10	–	–
CCC1CN(CC(=O)Nc2ncncc2F)C(=O)c2ccc(Br)cc21 (stereo not shown) [Example 1, 2-(6-bromo-4-ethyl-1-oxo-3,4-dihydroisoquinolin-2(1H)-yl)-N-(5-fluoropyrimidin-4-yl)acetamide]	1.38	< 10	–	–
CS(=O)(=O)CCNC(=O)CN1CC2(CC2)c2cc(Br)ccc2C1=O [Example 139, 2-(6-bromo-1-oxospiro[3H-isoquinoline-4,1′-cyclopropane]-2-yl)-N-(2-methylsulfonylethyl)acetamide]	26.4	> 15	–	–
COc1ncc(F)c(NC(=O)CN2CC3(CC3)c3cc(Br)ccc3C2=O)n1 [Example 391, 2-(6-bromo-1-oxospiro[3H-isoquinoline-4,1′-cyclopropane]-2-yl)-N-(5-fluoro-2-methoxypyrimidin-4-yl)acetamide]	22.4	–	–	–
O=C(CN1CC2(CC2)c2cc(Br)ccc2C1=O)Nc1ccc2ccncc2c1 [Example 191, 2-(6-bromo-1-oxospiro[3H-isoquinoline-4,1′-cyclopropane]-2-yl)-N-isoquinolin-7-ylacetamide]	1.15	< 10	–	–
O=C(CN1CC2(CC2)c2cc(Br)ccc2C1=O)Nc1ncc2c(n1)COCC2 [Example 330, 2-(6-bromo-1-oxospiro[3H-isoquinoline-4,1′-cyclopropane]-2-yl)-N-(6,8-dihydro-5H-pyrano[3,4-d]pyrimidin-2-yl)acetamide]	1.02	–	–	–
O=C(CN1CC2(CC2)c2cc(Br)ccc2C1=O)Nc1ncncn1 [Example 192, 2-(6-bromo-1-oxospiro[3H-isoquinoline-4,1′-cyclopropane]-2-yl)-N-(1,3,5-triazin-2-yl)acetamide]	0.309	< 10	–	–
O=C(CN1CC2(CC2)c2cc(Br)ccc2C1=O)NC12CCC(CC1)OC2 [Example 51, 2-(6-bromo-1-oxo-spiro[3H-isoquinoline-4,1′-cyclopropane]-2-yl)-N-(2-oxabicyclo[2.2.2]octan-4-yl)acetamide]	9.07	10 to 15	–	–
O=C(CN1CC(C(F)F)c2c(ccc(Br)c2F)C1=O)Nc1ncc(F)cn1 (single isomer, unassigned) [Example 295, 2-[6-bromo-4-(difluoromethyl)-5-fluoro-1-oxo-3,4-dihydroisoquinolin-2-yl]-N-(5-fluoropyrimidin-2-yl)acetamide]	–	10 to 15	–	12.8
O=C(CN1CC2(CC2)c2cc(Br)ccc2C1=O)Nc1cccc2ncccc12 [Example 162, 2-(6-bromo-1-oxospiro[3H-isoquinoline-4,1′-cyclopropane]-2-yl)-N-quinolin-5-ylacetamide]	3.54	< 10	–	–
O=C(CN1CC(C(F)(F)F)c2cc(Br)ccc2C1=O)Nc1ncc(F)cn1 (single isomer, unassigned) [Example 299, 2-[6-bromo-1-oxo-4-(trifluoromethyl)-3,4-dihydroisoquinolin-2-yl]-N-(5-fluoropyrimidin-2-yl)acetamide]	–	< 10	–	0.096
O=C(CN1CC2(CC2)c2cc(Br)ccc2C1=O)NC1CCC(F)(F)CC1 [Example 15, 2-(6-bromo-1-oxospiro[3H-isoquinoline-4,1′-cyclopropane]-2-yl)-N-(4,4-difluorocyclohexyl)acetamide]	3.19	< 10	–	–
O=C(CN1CC2(CC2)c2cc(Br)ccc2C1=O)N[C@@H]1CCCN(C2CC2)C1 [Example 268, 2-(6-bromo-1-oxospiro[3H-isoquinoline-4,1′-cyclopropane]-2-yl)-N-[(3R)-1-cyclopropylpiperidin-3-yl]acetamide]	0.192	< 10	–	–
O=C(CN1CC2(CC2)c2cc(Br)ccc2C1=O)Nc1ccn2nccc2n1 [Example 175, 2-(6-bromo-1-oxospiro[3H-isoquinoline-4,1′-cyclopropane]-2-yl)-N-pyrazolo[1,5-a]pyrimidin-5-ylacetamide]	0.672	< 10	–	–
